Source: patent publication US10954269B2, “Anti-inflammatory tripeptides” (Dr. August Wolff Gmbh & Co. KG Arzneimittel, priority 2013, dated 2021)
[ ]: non-standard residue; d: D form.

Tested on: primary human T-cells
Assay: Cytokine secretion on protein level in activated primary human T-cells (13-plex FACS / Luminex, supernatant)
Assay type: cell-based
Method in brief: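 PMA/Ionomycin- or IFN-γ-activated cells (48 h) treated with tripeptides; supernatant 13-plex FACS at 48 h and 72 h post-stimulation. Luminex run: PMA/Ionomycin plus compound at 10^−7, 10^−9, 10^−11 M; IFN-γ, IL-17, IL-10 for T cells, IFN-γ for HaCaT.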

[1] = primary human T-cells stimulated with IFN-γ, 10^−9M
[2] = primary human T-cells stimulated with IFN-γ, substance 10^−9M
[3] = primary human T-cells stimulated with PBS, 10^−9M
[4] = primary human T-cells stimulated with PBS, substance 10^−9M
[5] = primary human T-cells stimulated with PMA/Ionomycin, 10^−9M
[6] = primary human T-cells stimulated with PMA/Ionomycin, substance 10^−9M

Question: With “H-Lys-[dP]-Thr-OH [K(D)PT, reference compound]” as the substance, how does the IL-1 cytokine concentration [1] read?
Answer: The IL-1 cytokine concentration was 335.73 pg/mL.

Question: And the IL-2 cytokine concentration [1]?
Answer: The IL-2 cytokine concentration was 79.24 pg/mL.

Question: What about the IL-4 cytokine concentration [1] of the same substance?
Answer: The IL-4 cytokine concentration was 184.31 pg/mL.

Question: And the IL-5 cytokine concentration [1]?
Answer: The IL-5 cytokine concentration was 249.7 pg/mL.

Question: And the IL-6 cytokine concentration [1]?
Answer: The IL-6 cytokine concentration was 93.02 pg/mL.

Question: And the IL-9 cytokine concentration [1]?
Answer: Its IL-9 cytokine concentration is 93.74 pg/mL.

Question: And the IL-10 cytokine concentration [1]?
Answer: Its IL-10 cytokine concentration is 169.54 pg/mL.

Question: What about the IL-12p70 cytokine concentration [1] of the same substance?
Answer: Its IL-12p70 cytokine concentration is 895.95 pg/mL.

Question: And the IL-13 cytokine concentration [1]?
Answer: Its IL-13 cytokine concentration is 72.09 pg/mL.

Question: What about the IL-17 cytokine concentration [1] of the same substance?
Answer: Its IL-17 cytokine concentration is 204.05 pg/mL.

Question: What about the IL-22 cytokine concentration [1] of the same substance?
Answer: Its IL-22 cytokine concentration is 22747.7 pg/mL.

Question: And the TNF-α cytokine concentration [1]?
Answer: The TNF-α cytokine concentration was 178.65 pg/mL.

Question: And the IL-1 cytokine concentration [2]?
Answer: The IL-1 cytokine concentration was 0 pg/mL.

Question: What about the IL-2 cytokine concentration [2] of the same substance?
Answer: The IL-2 cytokine concentration was 0 pg/mL.

Question: What about the IL-4 cytokine concentration [2] of the same substance?
Answer: Its IL-4 cytokine concentration is 0 pg/mL.

Question: What about the IL-5 cytokine concentration [2] of the same substance?
Answer: Its IL-5 cytokine concentration is 0 pg/mL.

Question: And the IL-6 cytokine concentration [2]?
Answer: The IL-6 cytokine concentration was 58.47 pg/mL.

Question: And the IL-9 cytokine concentration [2]?
Answer: Its IL-9 cytokine concentration is 9.51 pg/mL.

Question: What about the IL-10 cytokine concentration [2] of the same substance?
Answer: The IL-10 cytokine concentration was 33.21 pg/mL.

Question: And the IL-12 cytokine concentration [2]?
Answer: Its IL-12 cytokine concentration is 0 pg/mL.

Question: What about the IL-12p70 cytokine concentration [2] of the same substance?
Answer: The IL-12p70 cytokine concentration was 0 pg/mL.

Question: What about the IL-13 cytokine concentration [2] of the same substance?
Answer: Its IL-13 cytokine concentration is 0 pg/mL.

Question: And the IL-17 cytokine concentration [2]?
Answer: Its IL-17 cytokine concentration is 0 pg/mL.

Question: What about the IL-22 cytokine concentration [2] of the same substance?
Answer: Its IL-22 cytokine concentration is 0 pg/mL.

Question: What about the TNF-α cytokine concentration [2] of the same substance?
Answer: Its TNF-α cytokine concentration is 0 pg/mL.

Question: And the IFN-γ cytokine concentration [3]?
Answer: Its IFN-γ cytokine concentration is 610.05 pg/mL.

Question: And the IL-1 cytokine concentration [3]?
Answer: The IL-1 cytokine concentration was 268.37 pg/mL.

Question: And the IL-2 cytokine concentration [3]?
Answer: The IL-2 cytokine concentration was 435.34 pg/mL.

Question: And the IL-4 cytokine concentration [3]?
Answer: Its IL-4 cytokine concentration is 136.29 pg/mL.

Question: What about the IL-5 cytokine concentration [3] of the same substance?
Answer: Its IL-5 cytokine concentration is 0 pg/mL.

Question: And the IL-6 cytokine concentration [3]?
Answer: Its IL-6 cytokine concentration is 92.39 pg/mL.

Question: What about the IL-9 cytokine concentration [3] of the same substance?
Answer: The IL-9 cytokine concentration was 102.2 pg/mL.

Question: And the IL-10 cytokine concentration [3]?
Answer: Its IL-10 cytokine concentration is 126.13 pg/mL.

Question: And the IL-12p70 cytokine concentration [3]?
Answer: The IL-12p70 cytokine concentration was 114.67 pg/mL.

Question: And the IL-13 cytokine concentration [3]?
Answer: Its IL-13 cytokine concentration is 80.48 pg/mL.

Question: And the IL-17 cytokine concentration [3]?
Answer: Its IL-17 cytokine concentration is 182.45 pg/mL.

Question: What about the IL-22 cytokine concentration [3] of the same substance?
Answer: The IL-22 cytokine concentration was 0 pg/mL.

Question: What about the TNF-α cytokine concentration [3] of the same substance?
Answer: Its TNF-α cytokine concentration is 160.25 pg/mL.

Question: And the IFN-γ cytokine concentration [4]?
Answer: The IFN-γ cytokine concentration was 0 pg/mL.

Question: What about the IL-1 cytokine concentration [4] of the same substance?
Answer: The IL-1 cytokine concentration was 147.97 pg/mL.

Question: And the IL-2 cytokine concentration [4]?
Answer: Its IL-2 cytokine concentration is 0 pg/mL.

Question: What about the IL-4 cytokine concentration [4] of the same substance?
Answer: The IL-4 cytokine concentration was 0 pg/mL.

Question: And the IL-5 cytokine concentration [4]?
Answer: The IL-5 cytokine concentration was 0 pg/mL.

Question: And the IL-6 cytokine concentration [4]?
Answer: The IL-6 cytokine concentration was 109.89 pg/mL.

Question: What about the IL-9 cytokine concentration [4] of the same substance?
Answer: Its IL-9 cytokine concentration is 0 pg/mL.

Question: What about the IL-10 cytokine concentration [4] of the same substance?
Answer: Its IL-10 cytokine concentration is 159.09 pg/mL.

Question: And the IL-12 cytokine concentration [4]?
Answer: The IL-12 cytokine concentration was 0 pg/mL.

Question: And the IL-12p70 cytokine concentration [4]?
Answer: Its IL-12p70 cytokine concentration is 0 pg/mL.

Question: And the IL-13 cytokine concentration [4]?
Answer: Its IL-13 cytokine concentration is 172.66 pg/mL.

Question: And the IL-17 cytokine concentration [4]?
Answer: The IL-17 cytokine concentration was 127.21 pg/mL.

Question: What about the IL-22 cytokine concentration [4] of the same substance?
Answer: The IL-22 cytokine concentration was 0 pg/mL.

Question: And the INF-α cytokine concentration [4]?
Answer: The INF-α cytokine concentration was 0 pg/mL.

Question: What about the TNF-a cytokine concentration [4] of the same substance?
Answer: The TNF-a cytokine concentration was 65.47 pg/mL.

Question: And the TNF-α cytokine concentration [4]?
Answer: The TNF-α cytokine concentration was 65.47 pg/mL.

Question: And the IFN-γ cytokine concentration [5]?
Answer: The IFN-γ cytokine concentration was 1854.29 pg/mL.

Question: And the IL-1 cytokine concentration [5]?
Answer: The IL-1 cytokine concentration was 69689.2 pg/mL.

Question: What about the IL-2 cytokine concentration [5] of the same substance?
Answer: The IL-2 cytokine concentration was 12000 pg/mL.

Question: What about the IL-4 cytokine concentration [5] of the same substance?
Answer: The IL-4 cytokine concentration was 235.78 pg/mL.

Question: What about the IL-5 cytokine concentration [5] of the same substance?
Answer: Its IL-5 cytokine concentration is 173.34 pg/mL.

Question: What about the IL-6 cytokine concentration [5] of the same substance?
Answer: The IL-6 cytokine concentration was 2058.24 pg/mL.

Question: And the IL-9 cytokine concentration [5]?
Answer: The IL-9 cytokine concentration was 162.4 pg/mL.

Question: What about the IL-10 cytokine concentration [5] of the same substance?
Answer: Its IL-10 cytokine concentration is 4936.79 pg/mL.

Question: And the IL-12p70 cytokine concentration [5]?
Answer: The IL-12p70 cytokine concentration was 1703.5 pg/mL.

Question: What about the IL-13 cytokine concentration [5] of the same substance?
Answer: Its IL-13 cytokine concentration is 944.87 pg/mL.

Question: And the IL-17 cytokine concentration [5]?
Answer: Its IL-17 cytokine concentration is 3116.43 pg/mL.

Question: And the IL-22 cytokine concentration [5]?
Answer: The IL-22 cytokine concentration was 24079 pg/mL.

Question: What about the TNF-α cytokine concentration [5] of the same substance?
Answer: Its TNF-α cytokine concentration is 3600 pg/mL.

Question: What about the IFN-γ cytokine concentration [6] of the same substance?
Answer: Its IFN-γ cytokine concentration is 12070.4 pg/mL.

Question: What about the IL-1 cytokine concentration [6] of the same substance?
Answer: Its IL-1 cytokine concentration is 594.38 pg/mL.

Question: What about the IL-2 cytokine concentration [6] of the same substance?
Answer: The IL-2 cytokine concentration was 3486.84 pg/mL.

Question: What about the IL-4 cytokine concentration [6] of the same substance?
Answer: The IL-4 cytokine concentration was 41.83 pg/mL.

Question: What about the IL-5 cytokine concentration [6] of the same substance?
Answer: The IL-5 cytokine concentration was 379.39 pg/mL.

Question: And the IL-6 cytokine concentration [6]?
Answer: The IL-6 cytokine concentration was 1535.49 pg/mL.

Question: And the IL-9 cytokine concentration [6]?
Answer: Its IL-9 cytokine concentration is 332.07 pg/mL.

Question: What about the IL-10 cytokine concentration [6] of the same substance?
Answer: The IL-10 cytokine concentration was 877.54 pg/mL.

Question: And the IL-12 cytokine concentration [6]?
Answer: Its IL-12 cytokine concentration is 0 pg/mL.

Question: What about the IL-12p70 cytokine concentration [6] of the same substance?
Answer: Its IL-12p70 cytokine concentration is 0 pg/mL.

Question: And the IL-13 cytokine concentration [6]?
Answer: The IL-13 cytokine concentration was 1158.74 pg/mL.

Question: What about the IL-17 cytokine concentration [6] of the same substance?
Answer: Its IL-17 cytokine concentration is 1808.01 pg/mL.

Question: What about the IL-22 cytokine concentration [6] of the same substance?
Answer: Its IL-22 cytokine concentration is 0 pg/mL.

Question: And the INF-α cytokine concentration [6]?
Answer: Its INF-α cytokine concentration is 12070.42 pg/mL.

Question: And the TNF-a cytokine concentration [6]?
Answer: Its TNF-a cytokine concentration is 3998.01 pg/mL.

Question: What about the TNF-α cytokine concentration [6] of the same substance?
Answer: The TNF-α cytokine concentration was 3998.01 pg/mL.
